Measured values reported in patent publication US7879913B2 (Catholic Healthcare West, priority 2005, dated 2011).
pIC50: −log10 of the molar value. Where two headings read alike, the source gives them in different places.

Tests used:
[1] = biological target: α4β2-nAChR agonist binding sites (Homo sapiens, UniProt P17787+P43681); experiment: 3H-epibatidine radioligand binding assay
human α4β2-nAChR = biological target: T1, human α4β2-nAChR (Homo sapiens, UniProt P17787+P43681); experiment: whole-cell voltage-clamp currents of heterologously expressed human α4β2-nAChR in SH-EP1 cells; type: cell-based; settings: for reduction of peak current amplitude after initial co-application of nicotine with IPT / peak amplitude of 3 μM nicotine-induced current, % of control / response to nicotine challenge after 15 min of IPT exposure, % of control: 3 μM IPT; for reduction of peak current amplitude after initial co-application of nicotine with IPT: 0 min
T1 construct: expressed in transfected cells; host or cells: SH-EP1 human epithelial cell line (SH-EP1-hα4β2)
T1 sequence (P43681 29-627 limits assumed): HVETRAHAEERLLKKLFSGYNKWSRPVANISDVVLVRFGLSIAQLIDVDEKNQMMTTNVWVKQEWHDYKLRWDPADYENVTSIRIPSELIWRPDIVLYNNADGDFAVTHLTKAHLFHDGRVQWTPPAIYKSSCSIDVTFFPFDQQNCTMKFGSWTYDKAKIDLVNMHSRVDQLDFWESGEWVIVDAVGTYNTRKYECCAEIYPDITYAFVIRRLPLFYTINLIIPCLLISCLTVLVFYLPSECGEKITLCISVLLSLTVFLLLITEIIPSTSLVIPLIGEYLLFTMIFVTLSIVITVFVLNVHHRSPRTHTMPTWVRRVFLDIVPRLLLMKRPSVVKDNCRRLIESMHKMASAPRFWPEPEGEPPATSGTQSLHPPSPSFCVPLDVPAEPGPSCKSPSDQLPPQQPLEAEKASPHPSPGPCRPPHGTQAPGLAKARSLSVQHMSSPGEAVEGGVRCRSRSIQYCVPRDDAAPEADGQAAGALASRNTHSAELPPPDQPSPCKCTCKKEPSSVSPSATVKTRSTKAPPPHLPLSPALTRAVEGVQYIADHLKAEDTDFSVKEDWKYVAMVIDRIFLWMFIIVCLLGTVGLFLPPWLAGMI
T1 sequence (P17787 26-502): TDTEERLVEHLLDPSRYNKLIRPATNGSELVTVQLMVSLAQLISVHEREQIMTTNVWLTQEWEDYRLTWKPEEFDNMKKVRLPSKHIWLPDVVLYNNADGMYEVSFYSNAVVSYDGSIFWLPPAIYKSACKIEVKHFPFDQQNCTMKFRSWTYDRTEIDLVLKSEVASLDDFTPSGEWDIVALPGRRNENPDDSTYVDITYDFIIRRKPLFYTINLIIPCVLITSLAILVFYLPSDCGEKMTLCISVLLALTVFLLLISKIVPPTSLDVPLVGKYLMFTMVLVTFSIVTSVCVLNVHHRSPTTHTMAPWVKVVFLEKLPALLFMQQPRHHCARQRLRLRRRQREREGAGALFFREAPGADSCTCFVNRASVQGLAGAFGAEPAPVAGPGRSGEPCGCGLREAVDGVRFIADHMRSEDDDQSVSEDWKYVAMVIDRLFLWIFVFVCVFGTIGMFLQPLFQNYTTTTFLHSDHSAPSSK
From the text: Heterologously expressed, human α4β2-nAChRs in cloned human epithelia cell (SH-EP1 cell line) were employed as a cellular model to test IPT's pharmacology. IPT acts as a potent and selective antagonist of α4-containing nAChR. IPT inhibits both peak and steady-state whole-cell current responses to nicotinic agonists and accelerates acute desensitization in a concentration-dependent manner while having long-lasting effects after washout. Its effects are enhanced by exposure to nAChR prior to agonist challenge.
The whole-cell traces of nicotinic responses with and without IPT are superimposed in the right traces. For these and all subsequent traces, current amplitude and time calibration bars are indicated, the holding potential (vH) was −60 mV unless indicated otherwise, and the duration of ligand exposure is indicated by the bars above the trace.
In this and all following figures, unless specifically mentioned, each column (or symbol) is the average from 4-6 cells tested, and vertical bars indicate±standard error.

human α4β4-nAChR = human α4β4-nAChR (Homo sapiens, UniProt P30926+P43681); experiment: whole-cell current responses of α4β4-nAChR; type: cell-based
Chain of human α4β4-nAChR (P43681 29-627 limits assumed): as the sequence (P43681 29-627 limits assumed) above
Chain of human α4β4-nAChR (P30926 22-498): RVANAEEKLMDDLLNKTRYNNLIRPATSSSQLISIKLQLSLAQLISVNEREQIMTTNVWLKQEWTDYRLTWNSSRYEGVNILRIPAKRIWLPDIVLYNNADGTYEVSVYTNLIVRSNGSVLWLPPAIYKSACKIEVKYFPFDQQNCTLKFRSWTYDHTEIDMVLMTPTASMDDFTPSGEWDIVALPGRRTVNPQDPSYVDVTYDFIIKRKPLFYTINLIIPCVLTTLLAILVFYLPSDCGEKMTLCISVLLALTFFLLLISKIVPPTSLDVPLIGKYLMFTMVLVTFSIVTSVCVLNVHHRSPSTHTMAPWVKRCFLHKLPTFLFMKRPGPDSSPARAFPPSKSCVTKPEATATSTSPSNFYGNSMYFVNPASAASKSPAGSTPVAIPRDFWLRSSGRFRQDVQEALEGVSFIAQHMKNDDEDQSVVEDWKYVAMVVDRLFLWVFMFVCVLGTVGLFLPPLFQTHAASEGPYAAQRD
Procedure: (§1) FIG. 9 illustrates that IPT-mediated functional block persisted for α4β2- but not α4β4-nAChR after 3 min of drug washout.
(§2) FIG. 9C depicts the IPT concentration (abscissa; log μM scale) dependence of inhibition of function (ordinate; peak whole-cell current responses normalized to those in the absence of IPT; mean±SE, n=6 cells) of human α4β2-(▪), α4β4-(◯), or α7-(▴) nAChR when IPT is co-applied with agonists.

human α7-nAChR = human α7-nAChR (Homo sapiens, UniProt P36544); experiment: whole-cell current responses of α7-nAChR to choline; type: cell-based
Chain of human α7-nAChR (P36544 23-502): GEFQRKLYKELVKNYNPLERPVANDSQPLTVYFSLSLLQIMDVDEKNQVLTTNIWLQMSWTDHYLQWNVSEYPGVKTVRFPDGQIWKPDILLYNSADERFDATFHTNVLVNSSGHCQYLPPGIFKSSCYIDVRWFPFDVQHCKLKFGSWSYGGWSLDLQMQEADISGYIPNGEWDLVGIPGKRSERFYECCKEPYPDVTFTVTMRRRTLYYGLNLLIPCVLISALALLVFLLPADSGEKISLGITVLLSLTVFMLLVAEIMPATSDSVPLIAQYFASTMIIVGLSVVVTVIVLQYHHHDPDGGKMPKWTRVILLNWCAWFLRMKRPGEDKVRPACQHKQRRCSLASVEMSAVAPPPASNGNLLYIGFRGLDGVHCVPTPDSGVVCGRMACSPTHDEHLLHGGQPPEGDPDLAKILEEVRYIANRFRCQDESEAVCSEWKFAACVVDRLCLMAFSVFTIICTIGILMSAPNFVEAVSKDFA
Procedure: as §1, §2
A double asterisk (**) represents p<0.01.

native α4β2-nAChR = biological target: T2, native α4β2-nAChR (Rattus norvegicus, UniProt P09483+P12390); experiment: RJR-2403-induced currents in single dopamine neurons acutely dissociated from rat VTA; type: cell-based; settings: VTA DA neurons; peak and steady-state currents
T2 construct: native expressed α4β2-nAChRs in single dopamine neurons acutely dissociated from rat VTA; from tissue; host or cells: dopamine neurons acutely dissociated from rat ventral tegmental area (VTA)
T2 sequence (P09483 31-630): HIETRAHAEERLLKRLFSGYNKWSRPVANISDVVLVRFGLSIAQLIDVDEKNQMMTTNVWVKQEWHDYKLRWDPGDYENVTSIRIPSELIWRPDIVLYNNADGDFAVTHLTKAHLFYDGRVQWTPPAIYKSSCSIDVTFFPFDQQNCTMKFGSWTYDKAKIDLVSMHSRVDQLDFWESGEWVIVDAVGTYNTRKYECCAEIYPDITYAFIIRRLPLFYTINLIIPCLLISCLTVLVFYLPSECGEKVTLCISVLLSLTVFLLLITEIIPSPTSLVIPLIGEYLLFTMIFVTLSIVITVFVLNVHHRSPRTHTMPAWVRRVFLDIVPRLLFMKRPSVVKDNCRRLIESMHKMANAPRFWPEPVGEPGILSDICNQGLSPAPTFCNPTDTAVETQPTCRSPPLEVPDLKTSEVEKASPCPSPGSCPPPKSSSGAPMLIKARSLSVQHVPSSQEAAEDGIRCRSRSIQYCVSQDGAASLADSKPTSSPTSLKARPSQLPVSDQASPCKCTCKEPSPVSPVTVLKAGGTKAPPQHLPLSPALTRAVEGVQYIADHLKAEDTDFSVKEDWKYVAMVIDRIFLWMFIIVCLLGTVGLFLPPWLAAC
T2 sequence (P12390 25-500): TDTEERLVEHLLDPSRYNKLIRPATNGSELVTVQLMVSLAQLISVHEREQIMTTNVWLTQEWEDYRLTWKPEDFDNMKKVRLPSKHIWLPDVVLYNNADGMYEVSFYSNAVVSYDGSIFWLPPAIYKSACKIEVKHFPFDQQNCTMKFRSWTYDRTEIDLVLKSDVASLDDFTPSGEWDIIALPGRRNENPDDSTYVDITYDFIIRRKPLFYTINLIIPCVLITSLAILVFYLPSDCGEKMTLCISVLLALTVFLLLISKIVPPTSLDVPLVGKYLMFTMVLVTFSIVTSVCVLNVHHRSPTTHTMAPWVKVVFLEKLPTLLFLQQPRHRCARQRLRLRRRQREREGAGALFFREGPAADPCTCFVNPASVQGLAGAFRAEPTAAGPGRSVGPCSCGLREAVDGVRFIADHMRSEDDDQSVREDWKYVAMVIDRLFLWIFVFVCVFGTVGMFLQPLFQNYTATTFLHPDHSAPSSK
From the text: FIG. 10 illustrates how typical traces representing four VTA DA neurons responded to α4β2-nAChR selective agonist, RJR-2403 with (FIG. 10B) and without IPT (FIG. 10A). […] Finally, FIG. 10C summarizes the inhibition-efficacy relationship curves of IPT-induced inhibition in peak and steady-state currents.

[2] = system: extracellular dopamine levels in the nucleus accumbens; experiment: microdialysis of extracellular dopamine in nucleus accumbens of acute nicotine-administered rats; type: in vivo, rat
From the text: Finally, the effects of IPT on the extracellular dopamine levels in the nucleus accumbens of acute nicotine-administered rats are illustrated by microdialysis.

[3] = 3 μM IPT co-applied with 3 μM nicotine, n=6
[4] = 50 μM IPT, 3 μM nicotine, holding potential 0 mV
[5] = 50 μM IPT, 3 μM nicotine, holding potential −40 mV
[6] = 50 μM IPT, 3 μM nicotine, holding potential −80 mV

Chain of α4β2-nAChR agonist binding sites (P43681 29-627 limits assumed): as the sequence (P43681 29-627 limits assumed) above
Chain of α4β2-nAChR agonist binding sites (P17787 26-502): as the sequence (P17787 26-502) above

SMILES: CNC1(C)C2CCC(C2)C1(C)C (stereo not drawn) [mecamylamine]
- block of 3H-epibatidine binding ([1]; concentrations up to 1 mM): failed to block radioligand binding

SMILES: CC(C)NC(C)(C)C(C)C.Cl [IPT, iptakalim hydrochloride]
- reduction of peak whole-cell current (Ip) (human α4β2-nAChR; 3 μM IPT co-applied with 3 μM nicotine, VH −60 mV, n=6): 20.85±2.69%
- acceleration of rate of decay from peak to steady-state current (human α4β2-nAChR; [3]): 21.38±3.40%
- reduction of ratio of steady-state to peak current (Is/Ip) (human α4β2-nAChR; [3]): 68.62±2.23%
- reduction of peak current amplitude after initial co-application of nicotine with IPT (human α4β2-nAChR; 3 μM nicotine, nicotine at start and end only (second value)): 13.6±2.4%
- reduction of peak current amplitude after initial co-application of nicotine with IPT (human α4β2-nAChR; 3 μM nicotine, repetitive nicotine challenge protocol (first value)): 16.8±6.1%
- peak amplitude of 3 μM nicotine-induced current, % of control (human α4β2-nAChR; 3 min pre-treatment ending before exposure to nicotine alone): 81±7 % of control
- peak amplitude of 3 μM nicotine-induced current, % of control (human α4β2-nAChR; 3 min pre-treatment followed by continued co-application): 62±4 % of control
- response to nicotine challenge after 15 min of IPT exposure, % of control (human α4β2-nAChR; after repeated nicotine challenges (4 sec at 3 min intervals)): 11.9±1.7 % of control
- peak amplitude of 3 μM nicotine-induced current, % of control (human α4β2-nAChR; co-application with nicotine without pre-treatment): 79±9 % of control
- response to nicotine challenge after 15 min of IPT exposure, % of control (human α4β2-nAChR; without repeated nicotine challenges): 29.8±3.3 % of control
- inhibition of α4β2-nAChR-mediated currents (human α4β2-nAChR; 10 μM IPT, 3 min pre-treatment then co-application, 3 μM nicotine): 70±11%
- current decay constant, % of control (human α4β2-nAChR; [4]): 44±7.6 % of control
- fractional inhibition of whole-cell peak current responses to nicotine (human α4β2-nAChR; [4]): 68.9±3.5%
- current decay constant, % of control (human α4β2-nAChR; [5]): 30±1.1 % of control
- fractional inhibition of whole-cell peak current responses to nicotine (human α4β2-nAChR; [5]): 76.4±2.6%
- current decay constant, % of control (human α4β2-nAChR; [6]): 22±3.4 % of control
- fractional inhibition of whole-cell peak current responses to nicotine (human α4β2-nAChR; [6]): 80.9±2.65%
- persistence of functional block after 3 min of drug washout (human α4β2-nAChR; 50 μM IPT, 3 μM nicotine): persisted
- block of peak whole-cell currents (human α4β2-nAChR; 50 μM IPT, agonist ACh 10 μM): 65.81±1.49%
- block of peak whole-cell currents (human α4β2-nAChR; 50 μM IPT, agonist RJR-2403 3 μM): 72.72±1.98%
- block of responses to cytisine (human α4β2-nAChR; 50 μM IPT, agonist cytisine 100 μM (maximally efficacious, partial agonist)): 49.32±3.46%
- block of peak whole-cell currents (human α4β2-nAChR; 50 μM IPT, agonist nicotine 3 μM): 76.37±2.56%
- pIC50 (human α4β2-nAChR; co-application condition, 3 μM nicotine, n=6, read-out: IC50 for inhibition of whole-cell steady-state current): 6.00
- pIC50 (human α4β2-nAChR; co-application with agonist, without pretreatment, 3 μM nicotine, read-out: IC50 for inhibition of peak whole-cell responses): 4.51
- half-time for recovery of peak current response to nicotine challenge (human α4β2-nAChR; washout after 4 sec exposure to 50 μM IPT, 3 μM nicotine): ~15 min
- pIC50 (human α4β2-nAChR; with 3 min pretreatment with IPT, 3 μM nicotine, read-out: IC50 for inhibition of peak whole-cell responses): 5.30
- persistence of functional block after 3 min of drug washout (human α4β4-nAChR; 50 μM IPT, 1 μM nicotine): not
- pIC50 (human α4β4-nAChR; co-application with agonist (1 μM nicotine), peak current, read-out: IC50 for functional inhibition): 4.64
- inhibition of α7-nAChR-mediated currents (human α7-nAChR; 10 μM IPT, 3 min pre-treatment then co-application, 1 mM choline): 3.5±0.4%
- pIC50 (human α7-nAChR; co-application with agonist (choline), peak current, read-out: IC50 for α7-nAChR blockade): < 3.00
- block of 3H-epibatidine binding ([1]; concentrations up to 1 mM): failed to block radioligand binding
- effect on RJR-2403-induced current response (native α4β2-nAChR): inhibited RJR-2403-induced current response in a concentration-dependent manner
- effect on nicotine-induced elevation of dopamine in the nucleus accumbens ([2]; local perfusion with IPT 1-100 μM from microdialysis probe after s.c. nicotine 0.5 mg/kg, significant 20-80 minutes after nicotine): tended to decrease nicotine-induced elevation of dopamine

SMILES: CN1CCCC1c1cccnc1 (stereo not drawn) [nicotine, reference compound]
- block of 3H-epibatidine binding ([1]; with previously reported IC50 values): blocked
- increase in dopamine levels versus final sample prior to nicotine administration ([2]; subcutaneous nicotine 0.5 mg/kg, control group): 100%
